Test system: human peripheral blood mononuclear cells (PBMC)
Experiment: Human peripheral blood mononuclear cell assay (LPS stimulated TNFa production)
Type: cell-based
Details: read-out: pIC50 potency, inhibition of TNF production (converted)
Protocol: The cellular potency of compounds was assessed in human peripheral blood mononuclear cells (PBMC) by measuring their impact on lipopolysaccharide (LPS) stimulated TNFa production. PBMCs were prepared from heparinised human blood from normal volunteers by centrifugation on hystopaque in Accuspin tubes at 800 g for 20 minutes. The cells were collected from the interface, washed by centrifugation (1300 g, 10 minutes) and resuspended in assay buffer (RPMI1640 containing 10% foetal calf serum, 1% L-glutamine and 1% penicillin/streptomycin) at 1×10^6 cells/ml. […] The supernatant was removed and the concentrations of TNF determined by electrochemiluminescence assay using the MSD technology.
20 μl supernatant from PBMC plates or 40 μl from whole blood plates was transferred using the Biomek FX to a 96 well High-Bind MSD assay plate precoated with anti-hTNF alpha capture antibody and containing 25 μl of MSD human serum cytokine assay diluent. […] The plates were shaken at room temperature for a further 1 hour before washing again and adding 150 μl of MSD Read Buffer T (2×). Plates were then read on the MSD Sector 6000 plate reader. For the PBMC assay, supernatant addition to the MSD plates was followed immediately by 20 μl of MSD detection antibody, the plates were then sealed and shaken for 2 hours before addition of 90 μl of MSD Read Buffer P (2.5×). Plates were read on the MSD Sector 6000. […]

In the case of COCCS(=O)(=O)N1CCC(c2c[nH]c3c(C(N)=O)cc(-c4ccc5c(c4)CN(C(C)C)C5)cc23)CC1 [Compound of formula (I), 5-[2-(1-methylethyl)-2,3-dihydro-1H-isoindol-5-yl]-3-(1-{[2-(methyloxy)ethyl]sulfonyl}-4-piperidinyl)-1H-indole-7-carboxamide], the IC50 is reported as less than 31.6 nM.
